Reference: patent US6699690B2, “Molecular constructs with a carcinoembryonic antigen (CEA) transcriptional regulatory sequence” (SmithKline Beecham Corporation, priority 1992, dated 2004)
Like-named read-outs stand apart in the source and are kept apart here.

Assays:
WiDr/CD tumors = assay: 5-FC treatment of subcutaneous WiDr/CD tumors in nude mice; type: in vivo; conditions: WiDr/CD cells injected; 5-FC ip 500 mg/kg; assessed day 130
Method: (§1) The same mixtures of WiDr and WiDr/CD cells were injected subcutaneously into 10 individual nude mice for 10 individual injections of 10 million cells for each mixture (Table 3). By day 6, all mice had tumors of approximately the same size. On day 6, 5 mice of each group received a daily injection of 5-FC (ip at 500 mg/kg body weight) for approximately 20 consecutive days, then injections of 5-FC (ip at 500 mg/kg body weight) three times a week for 19 days. By 22 days post tumor cell injection, all nontreated animals had to be killed due to the large size of the tumors. Likewise, all animals with WiDr derived tumors which also received 5-FC treatment had to be sacrificed on day 22 due to the size of the tumors.

WiDr cells = assay: Inhibition of cell growth by 5-FC in WiDr cells; type: cell-based; conditions: Homo sapiens; control WiDr cells, 3,000 cells per well, dosed from Day 3, read Day 8
Method: (§2) FIG. 23: 5-FC dose response of mixed WiDr and WiDr/CD cells. […] Beginning on Day 3, the cells were dosed with serially diluted 5-FC at the concentrations indicated on the x axis. The plates were stained and read on Day 8.
(§3) The following data illustrates and supports this important component of this invention. A human colorectal carcinoma cell line, WiDr, was genetically engineered to express cytosine deaminase (CD) by transfecting into the cell line the cloned gene for cytosine deaminase in an appropriate expression vector system for mammalian cells. WiDr cells expressing cytosine deaminase (WiDR/CD) and control cells not expressing cytosine deaminase (WiDr) were mixed together at different ratios, then plated at a total of 3,000 cells per well in a 96 well microtiter dish. […] Using the same mixtures of WiDr and WiDr/CD cells and again plating 3,000 total cells per well in a 96 well microtiter dish, log dose response curves were generated for the inhibition of cell growth by 5-FC.

[1] = test system: mixed WiDr and WiDr/CD tumors; assay: 5-FC treatment of subcutaneous mixed WiDr:WiDr/CD tumors in nude mice; type: in vivo; conditions: 5-FC ip 500 mg/kg; for Number of Cures: assessed day 130
Method: as §1

WiDr tumors = assay: 5-FC treatment of subcutaneous WiDr tumors in nude mice; type: in vivo; conditions: 5-FC ip 500 mg/kg
Method: as §1

WiDr/CD cells = assay: Inhibition of cell growth by 5-FC in WiDr/CD cells; type: cell-based; conditions: Homo sapiens; WiDr/CD cells expressing cytosine deaminase, 3,000 cells per well, dosed from Day 3, read Day 8
Method: as §2, §3

[2] = test system: WiDR, MCF7, Detroit 555, and SW480 nonhepatoma cell lines; assay: Growth inhibition by araM in infected nonhepatoma cell lines; type: cell-based, human; conditions: four nonhepatoma cell lines infected with pCR74 or pCR78 virus
Method: Four human, nonhepatoma cell lines were infected with replication-defective, full-length, artifical retroviruses containing the ALB/VZV TK chimaera (pCR74) or AFP/VZV TK chimaera (pCR78). These cell lines were WiDR (ATCC CCL218), MCF7 (ATCC HTB22), Detroit 555 (ATCC CCL110), and SW480 (ATCC CCL228). Subsequent to infection and selection on Geneticin (antibiotic G418 sulphate; registered trademark of GIBCO), these cells were assayed for VZV TK activity and growth inhibition in the presence of 9-β-D-arabinofuranosyl-6-methoxy-9H-purine, as described above. There was no increase in VZV TK activity or drug sensitivity to 9-β-D-arabino-furanosyl-6-methoxy-9H-purine in these four nonhepatoma cell lines infected with replication-defective, full-length, artificial retroviruses containing the ALB/VZV TK chimaera (pCR74) or AFP/VZV TK chimaera (pCR78) compared to parental cell lines which were not infected.

HuH7 cells = assay: Growth inhibition by araM in HuH7 cells; type: cell-based; conditions: Homo sapiens, Huh-7, 120 h, 5 days, read-out: IC50 (50% growth inhibition)
Method: (§4) The replication-defective, full-length, artificial retroviruses containing the ALB/VZV TK chimaera or AFP/VZV TK chimaera were used to infect human hepatoma cell lines called HepG2 (ATCC HB 8065) and HuH7(provided by B. Mason, Fox Chase Cancer Center, Philadelphia, Pa.). Following infection and selection on 1 mg Geneticin/mL, the cells were assayed for VZV TK activity (Geneticin(antibiotic G418 sulphate) is a registered trademark of GIBCO). In addition, HepG2 cells were incubated in the presence of (^3H)-labeled 9-β-D-arabinofuranosyl-6-methoxy-9H-purine (designated as araM in the following tables and figures) with subsequent measurement of ara-ATP formation. Finally, HepG2 and HuH7 cells were cultured in the presence of the abovementioned compound and the IC50 (50% growth inhibition) was determined. Cells infected with no virus or N2 virus act as control samples for these experiments. The N2 viruses contain no VZV TK genetic material.
(§5) HepG2 and HuH7 cells infected with the replication-defective, full-length, artificial retroviruses containing the ALB/VZV TK chimaera (pCR74) or AFP/VZV TK (pCR78) chimaera were incubated in the presence of varying amounts of 9-β-D-arabinofuranosyl-6-methoxy-9H-purine for 5 days and growth inhibition was determined as measured by cell number and DNA content.

HepG2 cells [3] = assay: Growth inhibition by araM in HepG2 cells; type: cell-based, human; conditions: HepG2 infected with ALB/VZV TK (pCR74) virus, 5 days, read-out: IC50 (50% growth inhibition)
Method: as §4, §5

HepG2 cells [4] = assay: ara-ATP formation from (3H)-labelled araM in infected HepG2 cells; type: cell-based, human; conditions: HepG2 cells infected with either pCR74- or pCR78-containing viruses
Method: as §4
9-β-D-arabinofuranosyl-6-methoxy-9H-purine (designated as araM) can be selectively monophosphorylated by VZV TK with subsequent anabolism to cytotoxic ara-ATP.

| SMILES | Number of Cures (WiDr/CD tumors) | IC50 (WiDr cells) | Number of Cures ([1]; WiDr:WiDr/CD (1:1) injected) | Number of Cures ([1]; WiDr:WiDr/CD (1:2) injected) | Number of Cures ([1]; WiDr:WiDr/CD (2:1) injected) | antitumor effects ([1]; all tumor groups composed of mixtures of cells which contained WiDr/CD cells) | Number of Cures (WiDr tumors; WiDR cells injected, assessed day 22) | effect on tumors (WiDr tumors; WiDr tumors that do not express cytosine deaminase) | IC50 (WiDr/CD cells) | increase in drug sensitivity compared to parental cell lines not infected [2] | IC50 (HuH7 cells; HuH7, no virus (control)) | IC50 (HuH7 cells; HuH7 infected with AFP/VZV TK (pCR78) virus) | IC50 (HuH7 cells; HuH7 infected with ALB/VZV TK (pCR74) virus) | IC50 (HepG2 cells [3]; listed as 9-B-D-arabinofuranosyl-6-methoxy-9H-purine) | IC50 (HepG2 cells [3]; Homo sapiens, HepG2, 120 h) | cytotoxic (3H)-ara-ATP formation (HepG2 cells [4]) |
| --- | --- | --- | --- | --- | --- | --- | --- | --- | --- | --- | --- | --- | --- | --- | --- | --- |
| Nc1nc(=O)[nH]cc1F [5-FC, 5-fluorocytosine] | 3/5 | 10 to 30 mM | 4/5 | 4/5 | 4/5 | significant antitumor effects | 0/5 | no effect | 10 to 25 µM | – | – | – | – | – | – | – |
| COc1ncnc2c1ncn2[C@@H]1O[C@H](CO)[C@@H](O)[C@@H]1O [araM, 9-β-D-arabinofuranosyl-6-methoxy-9H-purine] | – | – | – | – | – | – | – | – | – | no increase | ~1620 µM | 76 µM | 11 µM | 5 µM | 6.5 µM | significant amounts |
